Reference: patent publication US8586611B2 (priority 2005, dated 2013)

Legend:
Type in all cases: in vivo
[1] = test system: Pseudoperonospora cubensis; assay: Test F: cucumber downy mildew, DMSO/acetone/water test suspension, spray the day before inoculation (disease rating, 100 = 100% disease control)
Summary of the method: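 Cucumber seedlings inoculated with spores one day after spraying with the test suspension (4% DMSO in acetone/water 30/70; 250 ppm ≈ 250 g/ha). Kept 24 h in saturated air, then 6 days in a growth chamber, both at 20° C. Scored as % disease control versus untreated (100 = full control).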

Plasmopara viticola = assay: Test B: grape downy mildew, spray 24 h after inoculation (disease rating, 100 = 100% disease control)
Summary of the method: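 This is a curative spray test, applied 24 h after inoculation. Compounds in 50/50 acetone–water with 250 ppm Trem 014 surfactant were sprayed to run-off on P. viticola-infected seedlings, with 200 ppm equating to 500 g/ha. Plants were kept 5 days in a 20 °C growth chamber, then 24 h humid, and scored 0–100 for disease control relative to controls.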

[2] = test system: Pseudoperonospora cubensis; assay: Test A: cucumber downy mildew, spray the day before inoculation (disease rating, 100 = 100% disease control)
Summary of the method: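 Cucumber seedlings were sprayed to run-off with compound suspended in acetone/water containing 250 ppm Trem 014 (200 ppm equated to 500 g/ha), then inoculated with P. cubensis spores the next day. Plants were kept 24 h at 20 °C in saturated humidity, then 6 days at 20 °C, before disease rating relative to controls.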

[3] = test system: Erysiphe graminis f. sp. tritici; assay: Test E: wheat powdery mildew, spray the day before inoculation (disease rating, 100 = 100% disease control)
Summary of the method: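 Protective test: spores of E. graminis f. sp. tritici dusted on wheat seedlings one day after run-off spraying of test suspension (acetone/water with 250 ppm surfactant; 200 ppm = 500 g/ha). Ratings after 7 days in growth chamber at 20° C, 100 = full control, 0 = none, relative to controls.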

Phytophthora infestans [4] = assay: whole plant or invertebrate; details: tomato late blight
Phytophthora infestans [5] = assay: whole plant or invertebrate; details: tomato late blight; spray 17 h after inoculation; tested at 40 ppm
[6] = DMSO/acetone/water suspension, spray the day before inoculation, compounds without asterisk
[7] = spray 24 h after inoculation, compounds without asterisk (not 40 or 10 ppm)
[8] = spray the day before inoculation, compounds without asterisk (not 40 or 10 ppm)
[9] = spray 24 h after inoculation, tested at 40 ppm
[10] = spray the day before inoculation, tested at 40 ppm
[11] = DMSO/acetone/water test suspension, sprayed the day before inoculation, unmarked compounds (no asterisk)
[12] = sprayed 24 h after inoculation, unmarked compounds (no asterisk, not 40 or 10 ppm)
[13] = sprayed the day before inoculation, unmarked compounds (no asterisk, not 40 or 10 ppm)
[14] = sprayed the day before inoculation, 7 days at 20° C., unmarked compounds (no asterisk, not 40 or 10 ppm)

Compound	Test F disease rating (100 = 100% disease control, 0 = no disease control) [1, 6]	Test B disease rating (100 = 100% disease control, 0 = no disease control) (Plasmopara viticola; [7])	Test A disease rating (100 = 100% disease control, 0 = no disease control) [2, 8]	Test E disease rating (100 = 100% disease control, 0 = no disease control) [3, 8]	Test C disease rating (100 = 100% disease control, 0 = no disease control) (Phytophthora infestans [4]; [8])	Test D disease rating (100 = 100% disease control, 0 = no disease control) (Phytophthora infestans [5])	Test B disease rating (100 = 100% disease control, 0 = no disease control) (Plasmopara viticola; [9])	Test E disease rating (100 = 100% disease control, 0 = no disease control) [3, 10]	Test C disease rating (100 = 100% disease control, 0 = no disease control) (Phytophthora infestans [4]; [10])	Test F disease rating (100 = 100% disease control, 0 = no disease control) [1, 11]	Test B disease rating (100 = 100% disease control, 0 = no disease control) (Plasmopara viticola; [12])	Test A disease rating (100 = 100% disease control, 0 = no disease control) [2, 13]	Test E disease rating (100 = 100% disease control, 0 = no disease control) [3, 14]	Test C disease rating (100 = 100% disease control, 0 = no disease control) (Phytophthora infestans [4]; [13])
2-[1-[(2,5-dimethylphenyl)acetyl]-4-piperidinyl]-N-methyl-N-[(1R)-1-phenylpropyl]-4-oxazolecarboxamide [Compound 154]	95%	20%	0%	0%	0%									
2-[1-[(3,5-diethyl-1H-pyrazol-1-yl)acetyl]-4-piperidinyl]-N-methyl-N-[(1R)-1,2,3,4-tetrahydro-1-naphthalenyl]-4-thiazolecarboxamide [Compound 209]	99%	76%	100%	0%	98%									
2-[1-[[5-ethyl-3-(trifluoromethyl)-1H-pyrazol-1-yl]acetyl]-4-piperidinyl]-N-methyl-N-[(1R)-1,2,3,4-tetrahydro-1-naphthalenyl]-4-thiazolecarboxamide [Compound 208]	99%	95%	100%	0%	100%									
Cc1ccccc1CC(=O)N1CCC(c2nc(C(=O)N(C)[C@H](C)c3ccccc3)cs2)CC1 [Compound 11]	97%	31%	0%	0%	91%									
Cc1cc(C(F)(F)F)nn1CC(=O)N1CCC(c2nc(C(=O)N(C)C3c4ccccc4CCC3(C)C)cs2)CC1 (stereo not shown) [Compound 236]		61%	97%	0%	62%	99%	100%	0%	100%					
C[C@H](c1ccccc1)N(C)C(=O)c1csc(C2CCN(C(=O)Cc3ccc(F)c(Cl)c3)CC2)n1 [compound 35]	97%	66%	88%	0%	93%									
Cc1cccc(CC(=O)N2CCC(c3nc(C(=O)N(C)[C@H](C)c4ccccc4)cs3)CC2)c1 [compound 36]	95%	99%	100%	91%	100%									
C[C@H](c1ccccc1)N(C)C(=O)c1csc(C2CCN(C(=O)Cc3ccc(F)c(F)c3)CC2)n1 [compound 38]	43%	45%	0%	55%	0%									
C[C@H](c1ccccc1)N(C)C(=O)c1csc(C2CCN(C(=O)Cc3cc(C(F)(F)F)ccc3Cl)CC2)n1 [compound 39]	100%	100%	100%	85%	100%									
COc1ccccc1CC(=O)N1CCC(c2nc(C(=O)N(C)[C@H](C)c3ccccc3)cs2)CC1 [compound 41]	82%	94%	100%	0%	100%									
C[C@H](c1ccccc1)N(C)C(=O)c1csc(C2CCN(C(=O)Cc3cc(F)ccc3F)CC2)n1 [compound 44]	0%	57%	97%	21%	98%									
Cc1ccc(C)c(CC(=O)N2CCC(c3nc(C(=O)N(C)[C@H](C)c4ccccc4)cs3)CC2)c1 [compound 47]	100%	100%	100%	96%	100%									
C[C@H](c1ccccc1)N(C)C(=O)c1csc(C2CCN(C(=O)Nc3cccc(C(F)(F)F)c3)CC2)n1 [compound 156]	100%		100%	21%	62%									
CN(CCc1ccccc1)C(=O)c1csc(C2CCN(C(=O)Cc3ccccc3Cl)CC2)n1 [compound 162]	43%	14%	0%	42%	15%									
CC(C)(NC(=O)c1csc(C2CCN(C(=O)Cc3ccccc3Cl)CC2)n1)c1ccccc1 [compound 263]										0	0	92	0	15
O=C(NCCc1ccccc1)c1csc(C2CCN(C(=O)Cc3ccccc3Cl)CC2)n1 [compound 264]										93	20	96	68	0
O=C(NC1CCCc2ccccc21)c1csc(C2CCN(C(=O)Cc3ccccc3Cl)CC2)n1 (stereo not shown) [compound 266]										86	6	100	42	57
N#CC(NC(=O)c1csc(C2CCN(C(=O)Cc3cccc(Br)c3)CC2)n1)c1ccccc1 (stereo not shown) [compound 282]										39	8	55	0	0
N-methyl-2-[1-[[5-methyl-3-(trifluoromethyl)-1H-pyrazol-1-yl]acetyl]-4-piperidinyl]-N-[(1R,2S)-1,2,3,4-tetrahydro-2-methyl-1-naphthalenyl]-4-thiazolecarboxamide [Compound 234]		100%	100%	21%	100%	99%	100%	0%	100%					
